Experimental data taken from US20150202186A1, “CYSTATHIONINE-(gamma)-LYASE (CSE) INHIBITORS FOR TREATING PAIN” (SOVA PHARMACEUTICALS, INC., priority 2014, published 2015).
pIC50: −log10 of the molar value.

target: recombinant CSE (cystathionine-γ-lyase) (UniProt P32929); assay: CSE In Vitro Assay

Going from `CN(N)c1nnn(C)n1` [Compound 38] to `CCN(N)c1nnn[nH]1` [Compound 13], the pIC50 rises from < 4.00 to > 4.60. The second is the more potent here.

In the case of `COCCN(N)c1nnn[nH]1` [Compound 15], the pIC50 was 4.00 to 4.60.
